{"source": "patent US8168779B2", "about": "“Anhydrous crystalline β-maltose, its preparation and uses” (priority 2006, dated 2012)", "type_in_all_cases": "physicochemical", "key": {"[1]": {"assay": "Hygroscopicity test (moisture content under controlled relative humidity)", "conditions": "27° C.", "procedure": "Moisture contents of the samples at respective periods were measured based on the change of weight from the start of the test. The moisture contents of the samples at the start of the test were measured by Karl Fischer's method."}, "[2]": {"assay": "Powderizing test by admixing deionized water", "conditions": "25° C.", "procedure": "(§1) The usefulness of the crystal was judged by the amount of deionized water added to the limit of keeping the powder form. The form of the powder was evaluated by the following four phases: (1) powder; (2) lump (it keeps a powder form while it comprises lumps); (3) cake; and (4) paste. As a control, the anhydrous crystalline α-maltose used in Example 2 was treated by the same procedure. The test was carried out in a room where the temperature was kept at 25° C. The results of the test and the form of each sample after admixing with 1.25 ml of deionized water are shown in Table 7 and FIG. 15, respectively."}, "[3]": {"assay": "Powderizing test by admixing dehydrated ethanol", "procedure": "as §1, with “respectively. […] The results of the test and the form of each sample after admixing with 6 ml of dehydrated ethanol are shown in Table 8 and FIG. 16, respectively.” for “respectively.”"}, "[4]": {"assay": "Specific surface area by nitrogen adsorption isotherms (BET)", "conditions": "BET method, listed as anhydrous crystalline β-maltose converted by the ethanol treatment", "procedure": "About 3 g of the anhydrous crystalline β-maltose, obtained in Example 1, was dried in the apparatus under a reduced pressure at about 40° C. for about 15 hours as a pretreatment, and then used for the measurement of specific surface area by the nitrogen adsorption isotherms. The result was analyzed by conventional BET (Brunnauer, Emmet, and Teller) method."}}}
{"smiles": "OC[C@H]1O[C@H](O[C@H]2[C@H](O)[C@@H](O)[C@H](O)O[C@@H]2CO)[C@H](O)[C@@H](O)[C@@H]1O", "note": "[anhydrous crystalline β-maltose]", "values": [{"measurement": "Moisture content of samples", "setting": "[1]; RH 47% (lithium nitrate), 0 hour (start, Karl Fischer), listed as AC* β-Mal (Present invention)", "value": "0.32 %, w/w"}, {"measurement": "Moisture content of samples", "setting": "[1]; RH 47% (lithium nitrate), 2 hours, listed as AC* β-Mal (Present invention)", "value": "0.30 %, w/w"}, {"measurement": "Moisture content of samples", "setting": "[1]; RH 47% (lithium nitrate), 4 hours, listed as AC* β-Mal (Present invention)", "value": "0.28 %, w/w"}, {"measurement": "Moisture content of samples", "setting": "[1]; RH 47% (lithium nitrate), 24 hours, listed as AC* β-Mal (Present invention)", "value": "0.27 %, w/w"}, {"measurement": "Moisture content of samples", "setting": "[1]; RH 47% (lithium nitrate), 96 hours, listed as AC* β-Mal (Present invention)", "value": "0.34 %, w/w"}, {"measurement": "Moisture content of samples", "setting": "[1]; RH 47% (lithium nitrate), 192 hours, listed as AC* β-Mal (Present invention)", "value": "0.28 %, w/w"}, {"measurement": "Moisture content of samples", "setting": "[1]; RH 58% (sodium bromide), 0 hour (start, Karl Fischer), listed as AC β-Mal (Present invention)", "value": "0.32 %, w/w"}, {"measurement": "Moisture content of samples", "setting": "[1]; RH 58% (sodium bromide), 2 hours, listed as AC β-Mal (Present invention)", "value": "0.32 %, w/w"}, {"measurement": "Moisture content of samples", "setting": "[1]; RH 58% (sodium bromide), 4 hours, listed as AC β-Mal (Present invention)", "value": "0.33 %, w/w"}, {"measurement": "Moisture content of samples", "setting": "[1]; RH 58% (sodium bromide), 6 hours, listed as AC β-Mal (Present invention)", "value": "0.36 %, w/w"}, {"measurement": "Moisture content of samples", "setting": "[1]; RH 58% (sodium bromide), 8 hours, listed as AC β-Mal (Present invention)", "value": "0.35 %, w/w"}, {"measurement": "Moisture content of samples", "setting": "[1]; RH 58% (sodium bromide), 24 hours, listed as AC β-Mal (Present invention)", "value": "0.35 %, w/w"}, {"measurement": "Moisture content of samples", "setting": "[1]; RH 58% (sodium bromide), 96 hours, listed as AC β-Mal (Present invention)", "value": "1.47 %, w/w"}, {"measurement": "Moisture content of samples", "setting": "[1]; RH 58% (sodium bromide), 192 hours, listed as AC β-Mal (Present invention)", "value": "4.16 %, w/w"}, {"measurement": "Moisture content of samples", "setting": "[1]; RH 75% (sodium chloride), 0 hour (start, Karl Fischer), listed as AC β-Mal (Present invention)", "value": "0.32 %, w/w"}, {"measurement": "Moisture content of samples", "setting": "[1]; RH 75% (sodium chloride), 2 hours, listed as AC β-Mal (Present invention)", "value": "0.66 %, w/w"}, {"measurement": "Moisture content of samples", "setting": "[1]; RH 75% (sodium chloride), 4 hours, listed as AC β-Mal (Present invention)", "value": "2.37 %, w/w"}, {"measurement": "Moisture content of samples", "setting": "[1]; RH 75% (sodium chloride), 6 hours, listed as AC β-Mal (Present invention)", "value": "3.93 %, w/w"}, {"measurement": "Moisture content of samples", "setting": "[1]; RH 75% (sodium chloride), 8 hours, listed as AC β-Mal (Present invention)", "value": "4.51 %, w/w"}, {"measurement": "Moisture content of samples", "setting": "[1]; RH 75% (sodium chloride), 24 hours, listed as AC β-Mal (Present invention)", "value": "4.54 %, w/w"}, {"measurement": "Moisture content of samples", "setting": "[1]; RH 75% (sodium chloride), 96 hours, listed as AC β-Mal (Present invention)", "value": "4.57 %, w/w"}, {"measurement": "Moisture content of samples", "setting": "[1]; RH 75% (sodium chloride), 192 hours, listed as AC β-Mal (Present invention)", "value": "5.19 %, w/w"}, {"measurement": "Moisture content of samples", "setting": "[1]; RH 90% (barium chloride), 0 hour (start, Karl Fischer), listed as AC β-Mal (Present invention)", "value": "0.32 %, w/w"}, {"measurement": "Moisture content of samples", "setting": "[1]; RH 90% (barium chloride), 2 hours, listed as AC β-Mal (Present invention)", "value": "1.72 %, w/w"}, {"measurement": "Moisture content of samples", "setting": "[1]; RH 90% (barium chloride), 4 hours, listed as AC β-Mal (Present invention)", "value": "4.53 %, w/w"}, {"measurement": "Moisture content of samples", "setting": "[1]; RH 90% (barium chloride), 6 hours, listed as AC β-Mal (Present invention)", "value": "4.79 %, w/w"}, {"measurement": "Moisture content of samples", "setting": "[1]; RH 90% (barium chloride), 8 hours, listed as AC β-Mal (Present invention)", "value": "4.58 %, w/w"}, {"measurement": "Moisture content of samples", "setting": "[1]; RH 90% (barium chloride), 24 hours, listed as AC β-Mal (Present invention)", "value": "4.66 %, w/w"}, {"measurement": "Moisture content of samples", "setting": "[1]; RH 90% (barium chloride), 96 hours, listed as AC β-Mal (Present invention)", "value": "4.82 %, w/w"}, {"measurement": "Moisture content of samples", "setting": "[1]; RH 90% (barium chloride), 192 hours, listed as AC β-Mal (Present invention)", "value": "5.38 %, w/w"}, {"measurement": "Form of the powder after admixing deionized water", "setting": "[2]; 10 g crystal + 0.25 ml water (moisture content 2.4%, w/w)", "value": "Powder form"}, {"measurement": "Form of the powder after admixing deionized water", "setting": "[2]; 10 g crystal + 0.50 ml water (moisture content 4.8%, w/w)", "value": "Powder form"}, {"measurement": "Form of the powder after admixing deionized water", "setting": "[2]; 10 g crystal + 0.75 ml water (moisture content 7.0%, w/w)", "value": "Powder form"}, {"measurement": "Form of the powder after admixing deionized water", "setting": "[2]; 10 g crystal + 1.00 ml water (moisture content 9.1%, w/w)", "value": "Powder form"}, {"measurement": "Form of the powder after admixing deionized water", "setting": "[2]; 10 g crystal + 1.25 ml water (moisture content 11.1%, w/w)", "value": "Powder form"}, {"measurement": "Form of the powder after admixing deionized water", "setting": "[2]; 10 g crystal + 1.50 ml water (moisture content 13.0%, w/w)", "value": "Lump form"}, {"measurement": "Form of the powder after admixing deionized water", "setting": "[2]; 10 g crystal + 1.75 ml water (moisture content 14.9%, w/w)", "value": "Lump form"}, {"measurement": "Form of the powder after admixing deionized water", "setting": "[2]; 10 g crystal + 2.00 ml water (moisture content 16.7%, w/w)", "value": "Lump form"}, {"measurement": "Form of the powder after admixing dehydrated ethanol", "setting": "[3]; 10 g crystal + 3.0 ml ethanol (24.3 v/w %)", "value": "Powder form"}, {"measurement": "Form of the powder after admixing dehydrated ethanol", "setting": "[3]; 10 g crystal + 3.5 ml ethanol (27.5 v/w %)", "value": "Powder form"}, {"measurement": "Form of the powder after admixing dehydrated ethanol", "setting": "[3]; 10 g crystal + 4.0 ml ethanol (30.5 v/w %)", "value": "Powder form"}, {"measurement": "Form of the powder after admixing dehydrated ethanol", "setting": "[3]; 10 g crystal + 4.5 ml ethanol (33.3 v/w %)", "value": "Powder form"}, {"measurement": "Form of the powder after admixing dehydrated ethanol", "setting": "[3]; 10 g crystal + 5.0 ml ethanol (36.0 v/w %)", "value": "Powder form"}, {"measurement": "Form of the powder after admixing dehydrated ethanol", "setting": "[3]; 10 g crystal + 5.5 ml ethanol (38.5 v/w %)", "value": "Powder form"}, {"measurement": "Form of the powder after admixing dehydrated ethanol", "setting": "[3]; 10 g crystal + 6.0 ml ethanol (40.9 v/w %)", "value": "Powder form"}, {"measurement": "Form of the powder after admixing dehydrated ethanol", "setting": "[3]; 10 g crystal + 7.0 ml ethanol (45.3 v/w %)", "value": "Powder form"}, {"measurement": "Form of the powder after admixing dehydrated ethanol", "setting": "[3]; 10 g crystal + 8.0 ml ethanol (49.3 v/w %)", "value": "Powder form"}, {"measurement": "Form of the powder after admixing dehydrated ethanol", "setting": "[3]; 10 g crystal + 9.0 ml ethanol (52.9 v/w %)", "value": "Lump form"}, {"measurement": "Form of the powder after admixing dehydrated ethanol", "setting": "[3]; 10 g crystal + 10.0 ml ethanol (56.2 v/w %)", "value": "Lump form"}, {"measurement": "Form of the powder after admixing dehydrated ethanol", "setting": "[3]; 10 g crystal + 11.0 ml ethanol (59.2 v/w %)", "value": "Cake form"}, {"measurement": "Specific surface area", "setting": "[4]", "value": 3.39, "unit": "m^2/g"}]}
